Assay [1] concerns the target T1, Tyrosine-protein phosphatase non-receptor type 2 (Homo sapiens) (UniProt P17706).
T1 sequence (whole entry): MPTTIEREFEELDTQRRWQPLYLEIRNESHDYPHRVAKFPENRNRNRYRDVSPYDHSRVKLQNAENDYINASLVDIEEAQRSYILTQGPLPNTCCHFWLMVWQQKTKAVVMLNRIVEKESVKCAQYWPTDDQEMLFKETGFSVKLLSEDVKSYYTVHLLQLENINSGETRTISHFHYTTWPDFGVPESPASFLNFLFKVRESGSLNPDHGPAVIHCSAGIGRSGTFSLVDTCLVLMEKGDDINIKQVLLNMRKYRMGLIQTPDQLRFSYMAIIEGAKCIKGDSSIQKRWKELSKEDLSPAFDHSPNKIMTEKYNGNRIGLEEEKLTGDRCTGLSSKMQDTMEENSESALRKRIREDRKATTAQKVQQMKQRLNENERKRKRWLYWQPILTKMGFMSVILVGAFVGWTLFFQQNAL
In words: (§1) Inhibition of TCPTP (unknown origin) assessed as decrease in p-nitrophenol production from pNPP substrate after 30 mins by HTS7000 bioassay reader analysis.

Assay [2] addresses T2, Tyrosine-protein phosphatase non-receptor type 2 (Homo sapiens, UniProt P17706).
T2 sequence (P17706 whole entry): T1 sequence (whole entry)
The assay is described as §1.

Assay [3] concerns the target T3, Tyrosine-protein phosphatase non-receptor type 1 (Homo sapiens, UniProt P18031).
T3 sequence (P18031 whole entry): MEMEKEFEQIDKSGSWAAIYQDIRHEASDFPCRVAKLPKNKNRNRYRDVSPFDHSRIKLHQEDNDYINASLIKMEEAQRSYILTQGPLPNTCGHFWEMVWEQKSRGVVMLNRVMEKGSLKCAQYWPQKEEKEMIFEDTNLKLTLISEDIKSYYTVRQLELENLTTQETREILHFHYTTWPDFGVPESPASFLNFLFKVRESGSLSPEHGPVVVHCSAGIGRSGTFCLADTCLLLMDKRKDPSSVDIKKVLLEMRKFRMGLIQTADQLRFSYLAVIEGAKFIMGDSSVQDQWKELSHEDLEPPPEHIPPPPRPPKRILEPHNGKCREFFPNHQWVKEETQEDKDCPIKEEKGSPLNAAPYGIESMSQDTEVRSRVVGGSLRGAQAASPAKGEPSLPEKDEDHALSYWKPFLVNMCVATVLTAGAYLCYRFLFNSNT
In words: Inhibition of PTP1B (unknown origin) assessed as decrease in p-nitrophenol production from pNPP substrate after 30 mins by HTS7000 bioassay reader analysis.

Assay [4] concerns the target T4, Tyrosine-protein phosphatase non-receptor type 1 (Homo sapiens) (UniProt P18031).
T4 sequence (whole entry): T3 sequence (P18031 whole entry)
In words: Inhibition of PTP1B (unknown origin) assessed as decrease in p-nitrophenol production from pNPP substrate at 25 ug/ml after 30 mins by HTS7000 bioassay reader analysis.

This is an account of results in ChEMBL document CHEMBL2331519, “Sesquiterpenes from the rhizomes of Curcuma heyneana” (J Nat Prod, 2013).

For orientation: inhibition means the percentage by which the read-out fell short of the control. By IC50 is commonly meant the midpoint of a concentration-inhibition curve.

As to `C=C1CC[C@H]2C(C)(C)CCC[C@]2(C)[C@H]1/C=C/C(C)=O`, the inhibition result in assay [1] was “Dose-dependent effect”; in assay [4] it was 88.8%. Moreover, the figures for the IC50 in assay [2] and in assay [3] were 9.3 µM and 14.7 µM, respectively. On to `CC(C)=C1C[C@H]2[C@@H](CC[C@@]2(C)O)[C@@](C)(O)CC1=O`, for which the inhibition result in assay [1] is “Dose-dependent effect”; in assay [4], 86%. In addition, the IC50 turned out to be 15.7 µM in assay [2] and 35.1 µM in assay [3].

As for `C=C(C)[C@@H]1CC[C@H](C)[C@]12CC(=C(C)C)C(=O)O2`, in assay [4], the inhibition was < 65%. The same measure, in the same setting: with `C=C(C)[C@@H]1CC[C@](C)(O)[C@H]2CC[C@](C)(O)[C@H]2C1` the figure was < 65%.

In the case of `C=C(C)[C@@H]1CC[C@@H](C)[C@@]12C=C(C(C)(C)O)C(=O)O2`, in assay [4], the inhibition is < 65%.

Turning to `C=C(C)[C@@H]1CC[C@@]2(C)OC(=O)C(=C(C)C)C[C@@H]12`, the inhibition in assay [4] was < 65%. Consider `CC(C)=C1C[C@@H](O)[C@@](C)(O)CC[C@H](O)/C(C)=C\C1=O` [HEYNEANONE A], for which the inhibition result in assay [1] was “Dose-dependent effect”; in assay [4] it was 77.5%. In addition, the figures for the IC50 in assay [2] and in assay [3] were 62 µM and 42.5 µM, respectively.

Take `C=C1C[C@]2(O)O[C@@]3(CC2=C(C)C)[C@@H](C)CC[C@@H]13`: the inhibition in assay [4] is < 65%. As to `CCCCCCCCCCCCCCCC(=O)C1=C(O)[C@@H](CO)OC1=O`, the IC50 worked out at 5.1 µM in assay [2] and 5.62 µM in assay [3]. The inhibition in assay [4] turned out to be 99.1%.

Consider `C=C(C)[C@H]1CC[C@@](C)(O)[C@H]2CC[C@](C)(O)[C@H]2C1`, for which, in assay [4], the inhibition is < 65%.

`CC(C)=C1C[C@@H](O)[C@@](C)(O)CC[C@@H](O)/C(C)=C\C1=O` [HEYNEANONES C]: the inhibition entry in assay [1] was “Dose-dependent effect”; in assay [4] it was 86.2%. Moreover, the values for the IC50 in assay [2] and in assay [3] were 36.7 µM and 35.2 µM, respectively.

`C/C1=C/C(=O)/C(C(C)(C)O)=C\C=C(\C)C(=O)CC1`: the inhibition in assay [4] is < 65%. `C=C(C)[C@@H]1CC[C@H](C)[C@@]12C=C(C(C)(C)O)C(=O)O2`: in assay [4], the inhibition is < 65%. On the same count and under the same terms, with `CC1=CC(=O)[C@@]2(C[C@]3(O)[C@@H](C)CC[C@@H]13)OC2(C)C` the figure was < 65%. For `CC1=CC(=O)C(=C(C)C)C[C@@H]2[C@@](C)(O)CC[C@]12O` [AERUGIDIOL], the inhibition entry is “Dose-dependent effect” in assay [1] and 87.5% in assay [4]. Besides, the values for the IC50 in assay [2] and in assay [3] were 45.9 µM and 35.7 µM, respectively.

On to `C=C(C)[C@@H]1CC[C@]2(C)OC(=O)C(=C(C)C)C[C@@H]12`, for which the inhibition in assay [4] is < 65%. Still for that read-out and setting: with `CC1=C[C@@]2(O)O[C@@]3(C/C2=C(/C)CO)[C@@H](C)CC[C@@H]13` the figure was < 65%. The same measure, in the same setting: with `CC(C)=C1C[C@H]2[C@@H](CC[C@]2(C)O)C(CO)=CC1=O` the figure was < 65%; with `CC(C)=C1C[C@H]2[C@H](CC[C@]2(C)O)[C@@](C)(O)CC1=O`, < 65%. On to `CC1=CC(=O)C(=C(C)C)C[C@H]2[C@H]1CC[C@]2(C)O` [PROCURCUMENOL], for which the inhibition result was “Dose-dependent effect” in assay [1] and 69.3% in assay [4]. The values for the IC50 in assay [2] and in assay [3] were 26.8 µM and 45.6 µM, respectively. `CC(C)=C1C[C@H]2[C@@H](CC[C@]2(C)O)[C@](C)(O)CC1=O`: the inhibition in assay [4] was < 65%. On the same count and under the same terms, with `C=C(C)[C@H]1CC[C@H](C)[C@]12CC(=C(C)C)C(=O)O2` the figure was < 65%. In the case of `C=C(C)[C@@H]1CC[C@@]2(C)[C@H](O)CC[C@@](C)(O)[C@@H]2C1`, in assay [4], the inhibition was < 65%. Regarding `C[C@H]1[C@H](C)CC[C@]2(C(=O)O)CC[C@]3(C)C(=CC[C@@H]4[C@@]5(C)CC[C@H](O)C(C)(C)[C@@H]5CC[C@]43C)[C@H]12` [URSOLIC ACID], in assay [2], the IC50 is 2.4 µM. In assay [4], the inhibition came out at 96.7%.

Consider `CC(C)=C1C[C@@H](O)[C@](C)(O)CC[C@H](O)/C(C)=C\C1=O`, for which the inhibition in assay [4] was < 65%. As for `C=C1CC[C@H]2C(C)(C)CCC[C@]2(C)[C@H]1C/C=C(\C=O)CC(=O)O` [ZERUMIN A], the inhibition entry is “Dose-dependent effect” in assay [1] and 96.7% in assay [4]. Moreover, the IC50 in assay [2] was 7.4 µM; in assay [3], 10.4 µM.
